“Also recorded” adds a separate entry of the source. Where two headings read alike, the source gives them in different places.
Legend:
Egr-1 = Egr-1 gene expression in HT-29 cells, RT-PCR; format: cell-based, human
Procedure: Like Sp1, Egr-1 also is a transcription factor with zinc finger DNA-binding domains, which recognizes GC-rich sequences in the regulatory promoter region of the targeted gene (Al-Sarraj et al., (2005) J. Cell Biochem. 94(1): 153-167). Changes in Egr-1 gene expression were detected in compound 3-treated HT-29 cells by RT-PCR (FIG. 44A) as follows. HT-29 cells were treated with 1 μM compound 3 for the indicated times. Total RNA was extracted and gene expression level was determined by RT-PCR. To determine the effects of zinc supplement, HT-29 cells were treated with 1 μM compound 3, 35 μM ZnCl2 or compound 3 and ZnCl2 together for 8 hr. Egr-1 gene expression was determined by RT-PCR (FIG. 44B).

[1] = test system: panel of 60 human cancer cell lines; experiment: NCI DTP in vitro anticancer screen, panel of 60 human cancer cell lines; format: cell-based
Procedure: For example, the following methodology, which is currently employed by the NCI, can be used to assess the GI50 of a candidate compound of Formula I in the selected cancer cell lines. Briefly, cell suspensions are diluted (5000-40,000 cells per well) and 100 μL of the diluted cell suspension is added into 96-well microtiter plates. Inoculates are allowed a preincubation period of 24 h at 37° C. for stabilization. Dilutions at twice the intended test concentration of the candidate compound are added at time zero in 100 μL aliquots to the microtiter plate wells. Test compounds are generally evaluated at five 10-fold dilutions. In routine testing, the highest well concentration is usually 10E-4 M, but this may be adjusted depending on the compound being tested. The cells are incubated with the test compound for 48 h in 5% CO2 atmosphere and 100% humidity. The cells are then assayed by using the sulforhodamine B assay (see, for example, Skehan, P., et al. (1990) JNCI, J. Natl. Cancer Inst. 82, 1107-1112; and Chen, S. F., et al. (1990) Proc. Am. Assoc. Cancer Res. 31, A2644) employing a plate reader which can be used to read the optical densities.
Compounds 2 and 3 were evaluated for their antiproliferative effects in a panel of 60 human cancer cell lines as part of the in vitro anticancer screening services provided by the DTP (Developmental Therapeutics Program) of the US National Cancer Institute (NCI).
Analysis of the effects of compounds of Formula I on in vitro and in vivo cell growth inhibition were performed utilizing the methods as described in the preceding Examples. As shown in Example 12, cell growth inhibition by the parental compound 3 was screened by National Cancer Institute 60-cell line assay and leukemia, non-small cell cancer, colon cancer, renal cancer and prostate cancer panels were especially sensitive to compound 3.

[2] = In vitro chelation of zinc ions, Zinquin fluorescence; format: physicochemical; conditions: ZnCl2 2 μM in PBS, Zinquin 10 μM, 30 min
Procedure: To determine the chelation property of compound 3 with zinc ions in vitro, free available zinc ions were measured by spectrofluorometry using zinc-sensitive fluorescent dye Zinquin, following pre-incubation of ZnCl2 with different concentrations of compound 3 (FIG. 36). ZnCl2 2 μM was incubated with indicated concentrations of compound 3, in phosphate buffer saline (PBS), followed by addition of Zinquin, 10 μM final concentration for 30 min. Zinquin fluorescence upon zinc binding was measured in a Fluoroskan Ascent luminescence spectrofluorometer, at 364 nm excitation and 485 nm emission wavelengths.

[3] = test system: intracellular zinc ions in HT-29 cells; experiment: Chelation of intracellular zinc in HT-29 cells, Zinquin fluorescence; format: cell-based, human; conditions: HT-29 with or without pre-loading with 35 μM ZnCl2, 30 min
Procedure: To determine the chelation property of compound 3 with intracellular zinc ions, HT-29 cells, with or without pre-loaded with 35 μM ZnCl2 were treated with compound 3, a known zinc chelator TPEN or vehicle control (DMSO), and intracellular free zinc was determined by measuring Zinquin fluorescence as described in the preceding Example (FIG. 37). HT-29 cells (4×10^5 cells/group) were pre-treated with 35 μM ZnCl2 for 20 min, followed by addition of indicated concentrations of compound 3 or TPEN and 10 μM Zinquin for 30 min at 37° C., and the fluorescence count was measured (FIG. 37A). For measurement of chelation of endogenous zinc ions in HT-29 cells, HT-29 cells (1.5×10^6 cells/group) were treated with indicated concentrations of compound 3 and 10 μM Zinquin for 30 min at 37° C., and the fluorescence count was measured (FIG. 37B).

CCRF-CEM leukemia cells = experiment: Apoptosis, annexin V-FITC/PI flow cytometry, CCRF-CEM; format: cell-based, human; conditions: 0.1-1 μM, 24 hours
Procedure: The ability of compound 3 to alter the population of cells at different stages of apoptosis was measured by determining the effect of compound 3 on populations of CCRF-CEM leukemia cells treated with vehicle (DMSO), 0.1 μM, 0.25 μM, 0.5 μM, or 1 μM of compound 3 for 24 hours. CCRF-CEM cells were seeded and treated with the above concentrations of compound 3 or 0.1% DMSO vehicle control as described in Example 23. After 24 hours, the cells were collected by centrifugation and re-suspended in growth media to approximately 1×10^6 cells/ml. Then the cells were stained for annexin V binding and PI staining using the annexin V-FITC apoptosis detection kit (Oncogene™ research products, Mass.) and following the manufacturer's RAPID Annexin V Binding protocol. The fluorescence of stained cells was analyzed using FACScan flow cytometer and the Cell Quest program (BD Biosciences, San Jose, Calif.). Data were evaluated using Modfit software (Verity software House, Topsham, Me.) to generate quadrant statistics. Cells stained with Annexin V only are considered to be in early apoptosis, whereas cells stained with both Annexin V and propidium iodide are considered to be in late apoptosis. Cells stained with propidium iodide only are non-viable, whereas no staining indicates viable cells. MOLT-4 leukemia cells were treated similarly.

Cyclin D1 protein = Cyclin D1 protein in HT-29 cells, Western blotting; format: cell-based, human; conditions: HT-29, 1 μM
Procedure: Gene and protein expression of Cyclin D1 after treatment with compound 3 was determined by RT-PCR and Western blotting as shown in FIGS. 43A and 43B, respectively, as follows. HT-29 cells were treated with 1 μM compound 3 for indicated time. Total RNA was extracted and gene expression level was determined by RT-PCR. Cyclin D1 protein expression in HT-29 cell lysate was determined by SDS-PAGE followed by Western blotting.
To identify the cell cycle regulatory pathway involved in compound 3-mediated cell cycle arrest as shown in Example 23 and 41, particularly associated with G1/S phase, expression of the key cell cycle regulator of G1/S phase progression, Cyclin D1, was examined.

For `Cc1[nH]c2ccccc2c1-c1nc2c3cccnc3c3ncccc3c2[nH]1` [Compound 3], the “Egr-1 expression change with zinc supplement” value (Egr-1; HT-29, 1 μM compound plus 35 μM ZnCl2, 8 hr) was “reversible upon addition of zinc supplement”, the Egr-1 gene expression (Egr-1; HT-29, 1 μM, as early as 2 hr) was “significant increase in Egr-1 gene expression” and the GI50 ([1]; Homo sapiens, NCI 60-cell line assay, read-out: average GI50 of all cell lines tested) was 620 nM. The GI50 ([1]; Homo sapiens, span of average values in the NCI panel (FIG. 2), read-out: GI50 average values) was 610 to 12300 nM, the GI50 ([1]; average over human tumour cell lines of the NCI panel (FIG. 1), read-out: average GI50 (growth inhibition by 50%)) was less than 2000 nM and the “selectivity among cancer types of the NCI panel” value ([1]; in words) was “selective inhibitor of colon, leukemia, non-small cell lung cancer, and prostate cell lines”. For the same compound, the “Zinquin fluorescence (free zinc ions)” value [2] was “Dose-dependent decrease in Zinquin fluorescence”, the “intracellular free zinc (Zinquin fluorescence)” value [3] was “Dose-dependent decrease in both pre-loaded zinc and endogenous zinc levels” and the induction of apoptosis (CCRF-CEM leukemia cells) was “increase in the number of early and late apoptotic cells”. For the same compound, the “Cyclin D1 protein expression” value (Cyclin D1 protein) was “decrease in both gene (FIG. 43A) and protein (FIG. 43B) levels of Cyclin D1; also recorded: Decreased protein expression of Cyclin D1”.

— patent publication US8148392B2, “2-indolyl imidazo [4,5-d] phenanthroline derivatives and their use in the treatment of cancer” (Lorus Therapeutics Inc., priority 2005, dated 2012)
